Experimental data taken from PMC4919555 (EBioMedicine, 2016).
Where two headings read alike, the source gives them in different places.

What was measured:
[1] = tested on: M. tuberculosis wild-type, katG-null and katG-overexpressing strains; format: cell-based
[2] = tested on: M. tuberculosis clinical isolates; format: cell-based

Row | Structure (SMILES) | Killing of katG-null mutant strain [1] | Response of katG-null mutant [1] | Response of katG-overexpressing strain ([1]; 3.6 μM (0.5 μg/ml), 4 days) | Ratio (MIC relative to H37Rv) ([2]; CI1, − 15 C/T inhA) | Ratio (MIC relative to H37Rv) ([2]; CI2, − 15 C/T inhA) | Ratio (MIC relative to H37Rv) ([2]; CI3, − 15 C/T inhA)
1 | Cc1csc([C@](C)(O)c2nnc(Nc3ccn(Cc4csc(C)n4)n3)s2)n1 [GSK693, (S)-1-(4-methylthiazol-2-yl)-1-(5-((1-((2-methylthiazol-4-yl)methyl)-1H-pyrazol-3-yl)amino)-1,3,4-thiadiazol-2-yl)ethanol] | killed equally well as the wild-type strain | – | – | – | – | –
2 | NNC(=O)c1ccncc1 [INH, isoniazid] | – | resistant | more sensitive compared to the wild-type strain | 6 | 3 | 3
